Experimental data taken from patent US5447944A, “Carbamoyl-2-pyrrolidinone compounds” (Taiho Pharmaceutical Company, Limited, priority 1988, dated 1995).
Read-outs that look alike come from different tables or passages of the source.

Columns and labels:
[1] = Antianoxic activity test (Test Example 2): effect on the survival time under low-oxygen load at atmospheric pressure; type: in vivo, mice (ddY, five-week-old males); details: read-out: Antianoxia activity [increase ratio (%) of the survival time]
Excerpt: Antianoxic activity test (effect on the survival time under low-oxygen load at atmospheric pressure)
Groups of 10 mice (ddY, five-week-old males) were used for the experiment with reference to Japan Journal of Pharmacology, 81, 421~429 (1983), same, 86, 323~328 (1985) and same, 89, 355~363 (1987). The test compound was orally given to the mouse as dissolved or suspended in 0.5% solution of sodium carboxymethyl cellulose, the mouse was placed into a transparent plastics container (13×13×16 cm) having a vent, and a gas mixture of 96% nitrogen and 4% oxygen was passed through the container at a rate of 5 liters/min.

[2] = Reversal activity of amnesia (Test Example 1): scopolamine-induced amnesia, step-through passive avoidance, antiamnesia effect; type: in vivo, rats (Wistar, males); details: read-out: Antiamnesia effect [increase ratio (%) of the step-through latency]; for change in vivo at 10 mg/kg: 10 mg/kg oral
Experimental: Reversal activity of amnesia
Groups of 6 to 16 rats (Wistar, males, weighing 170 to 240 g) were used for the experiment.
Scopolamine was used as dissolved in physiological saline, and the test compound as dissolved or suspended in 0.5% solution of sodium carboxymethyl cellulose.
Scopolamine was subcutaneously given at a dose of 0.5 mg/kg 30 minutes before aquisition trials. The test compound was orally given immediately after the aquisition trials.
The rat was subjected to habituation trials about 1 hour before aquisition trials. The habituation was accomplished by placing the rat into the light compartment, opening the door 5 seconds thereafter, closing the door when the four legs completely entered the dark compartment, leaving the rat in the dark compartment for 10 seconds and thereafter taking out the rat. The acquisition trial was accomplished in the same manner as the habituation 1 hour thereafter except that simultaneously when the door was closed upon the movement of the rat into the dark compartment, an unescapable foot shock of 4.5 mA was given to the rat by the floor grit for 1 second.
A retention test was conducted 24 hours after the aquisition trials to measure the step-through latency during which the rat placed into the light compartment remained therein before moving into the dark compartment, i.e., the duration of a passive avoidance reaction.

[3] = Acute toxicity test (Test Example 3); details: in vivo, mouse
Experimental: Mice (ddY, five-week-old males) were used in groups of 4 to 5 mice each. The test compound was dissolved or suspended in 0.5% solution of sodium carboxymethyl cellulose and administered orally. […] Many of the test compounds produced symptoms of sedation or mascular relaxation for 30 minutes to 6 hours, followed by gradual recovery. The original state was restored two days later.

[4] = 30 mg/kg oral, mouse, 96% nitrogen and 4% oxygen, vs control group
[5] = 100 mg/kg oral, mouse, 96% nitrogen and 4% oxygen, vs control group
[6] = 300 mg/kg oral, mouse, 96% nitrogen and 4% oxygen, vs control group
[7] = rat, retention test 24 hours after acquisition, scopolamine 0.5 mg/kg s.c., vs control group
[8] = 30 mg/kg oral, rat, retention test 24 hours after acquisition, scopolamine 0.5 mg/kg s.c., vs control group
[9] = 100 mg/kg oral, rat, retention test 24 hours after acquisition, scopolamine 0.5 mg/kg s.c., vs control group
[10] = 300 mg/kg oral, rat, retention test 24 hours after acquisition, scopolamine 0.5 mg/kg s.c., vs control group

Compound | ILS at 30 mg/kg ([1]; Mus musculus, po) [%] | ILS at 100 mg/kg ([1]; Mus musculus, po) [%] | ILS at 300 mg/kg ([1]; Mus musculus, po) [%] | change in vivo at 30 mg/kg ([2]; Rattus norvegicus, po, 24 h) [%] | change in vivo at 100 mg/kg ([2]; Rattus norvegicus, po, 24 h) [%] | change in vivo at 300 mg/kg ([2]; Rattus norvegicus, po, 24 h) [%] | ILS at 30 mg/kg [1, 4] [%] | ILS at 100 mg/kg [1, 5] [%] | ILS at 300 mg/kg [1, 6] [%] | change in vivo at 10 mg/kg [2, 7] [%] | change in vivo at 30 mg/kg [2, 8] [%] | change in vivo at 100 mg/kg [2, 9] [%] | change in vivo at 300 mg/kg [2, 10] [%] | LD50 at 72 h ([3]; oral, observed for 3 days) [mg/kg] | LD50 at 72 h ([3]; po) [mg/kg]
COc1ccc(C(=O)N2CCCC2=O)cc1 [Aniracetam, reference compound] | 19 | 26 | 23 | 230 | 288 | 42 | – | – | – | – | – | – | – | – | –
CN(C)c1ccc(NC(=O)N2CCCC2=O)cc1 [Compound 5] | – | – | – | – | – | – | -4 | 22 | 9 | 119 | 598 | 213 | 79 | < 5000 | –
O=C1CCCN1C(=O)Nc1cccc2c1CCCC2 [Compound 8] | – | – | – | – | – | – | 30 | 25 | 20 | 125 | 531 | 490 | 414 | – | > 5000
COc1ccc(NC(=O)N2C(=O)CCC2C)cc1 (stereo not drawn) [Compound 15] | – | – | – | – | – | – | -3 | -1 | 11 | – | 25 | 148 | 672 | – | > 5000
O=C1CCCN1C(=O)Nc1ccc(Cl)cc1 [Compound 3] | – | – | – | – | – | – | 11 | 15 | 46 | – | – | – | – | – | > 2000
COc1ccc(NC(=O)N2CCCC2=O)cc1OC [Compound 6] | – | – | – | – | – | – | 0 | -4 | 14 | – | 138 | 568 | 596 | – | > 5000
COc1ccc(NC(=O)N2CCCC2=O)cc1 [Compound 2, 1-(4-methoxyphenylcarbamoyl)-2-pyrrolidinone] | – | – | – | – | – | – | 11 | 5 | 27 | 346 | 557 | 623 | 507 | > 5000 | –
CC1CCN(C(=O)Nc2ccccc2)C1=O (stereo not drawn) [Compound 13] | – | – | – | – | – | – | 9 | 87 | 37 | – | – | – | – | – | > 2000
O=C1CCCN1C(=O)Nc1nccs1 [Compound 10] | – | – | – | – | – | – | -4 | -1 | 35 | – | 166 | 144 | 475 | – | 5000
COc1ccc(NC(=O)N2CC(O)CC2=O)cc1 (stereo not drawn) [Compound 12] | – | – | – | – | – | – | 5 | 7 | 63 | – | – | – | – | – | –
O=C1CCC(CO)N1C(=O)Nc1ccccc1 (stereo not drawn) [Compound 16, 5-hydroxymethyl-1-phenylcarbamoyl-2-pyrrolidinone] | – | – | – | – | – | – | 10 | 36 | 89 | – | 135 | 103 | 50 | 5000 | –
O=C1CCCN1C(=O)Nc1ccccc1 [Compound 1] | – | – | – | – | – | – | -15 | 15 | 39 | 360 | 623 | 367 | 230 | – | > 5000
O=C1CC(O)CN1C(=O)Nc1ccccc1 (stereo not drawn) [Compound 11, 1-phenylcarbamoyl-4-hydroxy-2-pyrrolidinone] | – | – | – | – | – | – | 11 | 62 | 96 | – | 346 | 198 | 518 | – | –
O=C1CCCN1C(=O)Nc1ccncc1 [Compound 9] | – | – | – | – | – | – | 13 | 12 | 16 | -7 | 245 | 157 | 41 | < 5000 | –
COc1cc(NC(=O)N2CCCC2=O)cc(OC)c1OC [Compound 7] | – | – | – | – | – | – | 4 | 11 | 66 | – | -10 | 209 | 345 | – | 5000
COc1ccc(NC(=O)N2CCC(C)C2=O)cc1 (stereo not drawn) [Compound 14, 3-methyl-1-(4-methoxyphenylcarbamoyl)-2-pyrrolidinone] | – | – | – | – | – | – | 9 | 26 | 34 | – | 75 | 6 | 1 | > 5000 | –
